From ChEMBL document CHEMBL1141241, “3,6-disubstituted coumarins as mechanism-based inhibitors of thrombin and factor Xa” (J Med Chem, 2005) come the findings set out here.

The target in assay [1] is Prothrombin (Homo sapiens) (UniProt P00734). The following applies: at 2 µM.
Description: Inhibitory activity against human thrombin at 2 uM
The target in assay [2] is Coagulation factor X (Homo sapiens) (UniProt P00742). Nature of the assay: Inhibitory activity against human FXa at 5 uM; values are per cent of control.
Assay [3] can be described thus: Selectivity ratio for human thrombin over bovine trypsin.

Coagulation factor X (Homo sapiens), sequence (P00742 41-179 limits assumed): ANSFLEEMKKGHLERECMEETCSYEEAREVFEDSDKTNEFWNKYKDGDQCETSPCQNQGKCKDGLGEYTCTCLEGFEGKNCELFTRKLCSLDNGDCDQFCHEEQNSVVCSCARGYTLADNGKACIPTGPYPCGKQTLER
Coagulation factor X (Homo sapiens), sequence (P00742 235-488 limits assumed): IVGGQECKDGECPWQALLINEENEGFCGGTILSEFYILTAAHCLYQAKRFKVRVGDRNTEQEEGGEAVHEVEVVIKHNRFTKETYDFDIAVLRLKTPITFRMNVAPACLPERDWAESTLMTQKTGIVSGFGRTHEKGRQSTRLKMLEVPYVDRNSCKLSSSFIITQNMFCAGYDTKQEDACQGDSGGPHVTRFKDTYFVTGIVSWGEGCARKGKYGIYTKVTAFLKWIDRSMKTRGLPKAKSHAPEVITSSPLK

A word on the residual activity: it is the signal under treatment as a percentage of the control signal. On to `O=C(Cc1cccc(Cl)c1)c1cc2cc(CCl)ccc2oc1=O`, for which the residual activity in assay [1] and in assay [2] was 77% throughout.

As to `O=C(Oc1ccc2ccccc2c1)c1cc2cc(CCl)ccc2oc1=O`, the residual activity came to 109% in assay [1] and 113% in assay [2].

For `O=C(Oc1cccc(Cl)c1)c1cc2ccccc2oc1=O`, the figures for the residual activity in assay [1] and in assay [2] were 107% and 77%, respectively.

Regarding `O=C(Oc1ccc2ncccc2c1)c1cc2cc(CCl)ccc2oc1=O`, the residual activity in assay [1] is 98%; in assay [2], 125%.

Regarding `Cc1cccc(OC(=O)c2cc3cc(CCl)ccc3oc2=O)c1`, the residual activity in assay [1] was found to be 35%; in assay [2], 78%.

Take `O=C(OCc1ccccc1)c1cc2cc(CCl)ccc2oc1=O`: the residual activity in assay [1] was found to be 95%; in assay [2], 110%.

Take `COc1cccc(OC(=O)c2cc3cc(CCl)ccc3oc2=O)c1`: the residual activity came to 66% in assay [1] and 108% in assay [2].

With `O=C(Oc1cccc(I)c1)c1cc2cc(CCl)ccc2oc1=O`, the residual activity came out at 27% in assay [1] and 73% in assay [2].

Turning to `O=C(Oc1ccccn1)c1cc2cc(CCl)ccc2oc1=O`, the residual activity was found to be 100% in assay [1] and 89% in assay [2].

As to `O=C(Oc1cccc(F)c1)c1cc2cc(CCl)ccc2oc1=O`, the residual activity in assay [1] was 24%; in assay [2], 61%.

In the case of `Cc1ccc2oc(=O)c(C(=O)Oc3cccc(Cl)c3)cc2c1`, the residual activity was 70% in assay [1] and 61% in assay [2].

For the compound `O=C(Oc1ccc(I)cc1)c1cc2cc(CCl)ccc2oc1=O`, the residual activity in assay [1] was 99%; in assay [2] it was 80%.

As for `O=C(Oc1ccccc1I)c1cc2cc(CCl)ccc2oc1=O`, the results for the residual activity in assay [1] and in assay [2] were 59% and 92%, respectively.

For `O=C(Oc1cc(Cl)cc(Cl)c1)c1cc2cc(CCl)ccc2oc1=O`, the residual activity in assay [1] is 102%; in assay [2], 73%.

As for `O=C(Oc1c(Cl)cccc1Cl)c1cc2cc(CCl)ccc2oc1=O`, the residual activity in assay [1] was 101%; in assay [2] it was 109%.

As to `O=C(Oc1cccc(Br)c1)c1cc2cc(CCl)ccc2oc1=O`, the residual activity in assay [1] was determined as 8%; in assay [2], 33%. For the same compound, the Ratio in assay [3] was found to be 55.

`O=C(Oc1cccc(C(F)(F)F)c1)c1cc2cc(CCl)ccc2oc1=O`: the residual activity came to 66% in assay [1] and 134% in assay [2].

As for `O=C(Oc1cccc([N+](=O)[O-])c1)c1cc2cc(CCl)ccc2oc1=O`, the residual activity in assay [1] came to 80%; in assay [2] it was 124%.

For the compound `O=C(Oc1cccc2cccnc12)c1cc2cc(CCl)ccc2oc1=O`, the residual activity in assay [1] is 107%; in assay [2], 114%.

In the case of `CC(=O)OCc1ccc2oc(=O)c(C(=O)Oc3cccc(Cl)c3)cc2c1`, the residual activity in assay [1] was determined as 91%; in assay [2], 82%.

Take `O=C(Sc1cccc(Cl)c1)c1cc2cc(CCl)ccc2oc1=O`: the residual activity in assay [1] was determined as 107%; in assay [2], 60%.

With `O=C(Oc1cccc2ccccc12)c1cc2cc(CCl)ccc2oc1=O`, the results for the residual activity in assay [1] and in assay [2] were 115% and 109%, respectively.

Consider `O=C(Oc1ccc(Cl)cc1)c1cc2cc(CCl)ccc2oc1=O`, for which the residual activity in assay [1] was 107%; in assay [2], 102%.

Turning to `Cc1ccccc1OC(=O)c1cc2cc(CCl)ccc2oc1=O`, the residual activity in assay [1] amounted to 79%; in assay [2], 103%.

For `O=C(Nc1cccc(Cl)c1)c1cc2cc(CCl)ccc2oc1=O`, the residual activity was 97% in assay [1] and 89% in assay [2].

In the case of `O=C(Oc1cc(Cl)ccc1Cl)c1cc2cc(CCl)ccc2oc1=O`, the residual activity in assay [2] worked out at 39%.

With `O=C(Oc1cccc(Cl)c1)c1cc2cc(CCl)ccc2oc1=O`, the residual activity in assay [1] was determined as 10%; in assay [2] it was 29%. The Ratio in assay [3] was 25.

Turning to `O=C(Oc1cccnc1)c1cc2cc(CCl)ccc2oc1=O`, the results for the residual activity in assay [1] and in assay [2] were 113% and 114%, respectively.

On to `O=C(Oc1cccc(Cl)c1Cl)c1cc2cc(CCl)ccc2oc1=O`, for which the residual activity in assay [1] is 100%; in assay [2], 125%.

On to `Cc1ccc(OC(=O)c2cc3cc(CCl)ccc3oc2=O)cc1`, for which the residual activity in assay [1] came to 111%; in assay [2], 72%.

With `O=C(Oc1ccccc1Cl)c1cc2cc(CCl)ccc2oc1=O`, the residual activity in assay [1] was 78%; in assay [2], 134%.

On to `O=C(c1cccc(Cl)c1)c1cc2cc(CCl)ccc2oc1=O`, for which the residual activity in assay [1] is 100%; in assay [2] it was 83%.

On to `COc1cc(Cl)cc(OC(=O)c2cc3cc(CCl)ccc3oc2=O)c1`, for which the residual activity in assay [1] was 103%; in assay [2], 126%.

For `O=C(Oc1ccccc1)c1cc2cc(CCl)ccc2oc1=O`, the residual activity in assay [1] is 60%; in assay [2], 59%.
